What was measured:
[1] = Stability of the solid upon drying under vacuum; format: physicochemical; details: solids collected by filtration and dried under vacuum
Protocol: (§1) Alternatively, after the oil is formed from the evaporation of the ethanol, acetone is added to the oil at a temperature effective to solubilize the oil, ranging from about 30° C. to about 60° C., such as 45° C., and then the resulting mixture is cooled to room temperature. A non-polar antisolvent, such as n-heptane is added to the solution with stirring to form a slurry comprising N-ethyl-2-(5-fluoro-1H-indol-3-yl)-N-methylethan-1-amine monosuccinate, from which a crystalline solid comprising N-ethyl-2-(5-fluoro-1H-indol-3-yl)-N-methylethan-1-amine monosuccinate is crystallized, for example, by seeding, scratching, or aging. The solids are collected by filtration and dried under vacuum.

[2] = Overnight humidity exposure at 30° C./90% relative humidity; format: physicochemical; details: 30° C./90% relative humidity (RH)
Protocol: as §1

## CCN(C)CCc1c[nH]c2ccc(F)cc12.O=C(O)CCC(=O)O [N-ethyl-2-(5-fluoro-1H-indol-3-yl)-N-methylethan-1-amine monosuccinate]
[1]
  stability upon drying: stable upon drying
[2]
  behaviour after humidity exposure (deliquescence): deliquesces
